In patent US7671091B2, “Penis enlargement” (priority 2004, dated 2010):

Columns and labels:
[1] = system: human penis; assay: Permanent increase in erect penis length and girth after repeated intracavernosal vasodilator treatment of male patients; format: in vivo
Description: The term “penis length” refers to the maximum length of the penis, as measured along the dorsal surface of the penis from the symphysis pubis to the tip or end of the glans penis when the glans penis is pulled manually and put under tension. Preferably, the measurement is taken when the penis is fully erect.
The term “penis girth” refers to the largest measured value obtained for circumference of the erect penis, as measured in the midshaft region (middle third). Preferably, the measurement is taken when the penis is fully erect.
An engorgement is deemed “cumulative prolonged” when an erectile response lasts for at least 3 hours over a 24 hours period.
(§1) Therefore, a “cumulative prolonged engorgement” would be an erectile response that is over 40% for a period of at least 3 hours in a 24 hours period.
A patient was treated with intracavernosal injections of a vasodilator, prostaglandin E1, on a regular basis (approximately four to five times per week) over an 18 month treatment period. […] The quantity of medication was adjusted from time to time in accordance with the patient's response, which was monitored at least weekly. […]
A patient was treated with intracavernosal injections of a quadruple mix of the vasodilators prostaglandin E1, Atropine, Chlorpromazine and Papavarine on a regular basis (approximately two to four times per week) over a 4-month treatment period. […] The quantity of medication was adjusted in accordance with the patient's response. The potentiator dihydrotestosterone 5% ointment was administered […] starting two weeks before starting the IC injections of the vasodilators Atropine, Chlorpromazine and Papavarine and prostaglandin.

[2] = system: human penis; conditions: in vivo
Method: as §1
(§2) The quantity of medication was adjusted in accordance with the patient's response.
as §2

[3] = Example 1: patient, 18-month treatment

SMILES	increase in erect penis length ([1]; Example 6: patient, 4 months, frequently with oral Viagra, dihydrotestosterone gel) [%]	erect penis length after treatment ([1]; Example 6: patient, intracavernosal 2-4 times per week, 4 months, frequently combined with oral Viagra, potentiator dihydrotestosterone gel, from 5.2 inches) [inches]	tolerability (sensitivity) [2]	increase in erect penis girth [1, 3] [%]	increase in erect penis length [1, 3] [%]	fully erect penis girth after treatment ([1]; Example 1: patient, 18-month treatment, from 3.7 inches) [inches]	fully erect penis length after treatment ([1]; Example 1: patient, intracavernosal, approx. 4-5 times per week, 18-month treatment, from 5.8 inches) [inches]	increase in erect penis length ([1]; Example 10: patient, 3 months, with daily subcutaneous dihydrotestosterone) [%]	erect penis length after treatment ([1]; Example 10: patient, two separate IC injections per treatment day, 2-5 times per week, 3 months, dihydrotestosterone 15 mg subcutaneously into the penis daily, from 6.3 inches) [inches]
Cc1ccc(N(CC2=NCCN2)c2cccc(O)c2)cc1 [phentolamine]	~25	6.5	–	–	–	–	–	–	–
CCCCC[C@H](O)/C=C/[C@H]1[C@H](O)CC(=O)[C@@H]1CCCCCCC(=O)O [prostaglandin E1]	–	–	aching and pain at higher doses	~56	~48	5.8	8.6	~13	7.1
